Test system: 616215-338-R-J1-PDC spheroid with HUVEC/MSC, viability
Experiment: Anticancer human tumor 616215-338-R-J1-PDC patient-derived colon adenocarcinoma cell line growth inhibition [TAK]
Conditions: for IC50: curve of first compound; for viability, T/C: stronger effect = lower value; active means viability on the fitted dose curve at most 10% of control; inactive means the rest
From the text: Combinatorial screen of targeted agents with TAK-243 and ipatasertib in multi-cell type tumor spheroids
A high-throughput screen of multi-cell type tumor spheroids was designed to identify active combinations of targeted small molecules and TAK-243 or ipatasertib. Complex spheroids include a stromal component modeled by human endothelial cells (HUVEC) and fibroblasts modeled by human mesenchymal stem cells (MSCs). The concentration ranges selected for each drug and investigational agent were based upon clinically achievable concentrations if the clinical Cmax of the agent was known.
Compounds. The drugs and investigational agents: TAK-243 (785004), ipatasertib (767898), everolimus (733504), selumetinib (741078), bortezomib (756655), trametinib (758246), ixazomib (758254), vemurafenib (761431), dabrafenib (764134), sapanisertib (764658), alpelisib (765974), and copanlisib (816437), were obtained from the National Cancer Institute (NCI) Developmental Therapeutics Program Chemical Repository. The FDA-approved anticancer drug set is available from the NCI Developmental Therapeutics Program. […] The stock solutions were prepared in dimethyl sulfoxide (DMSO, Sigma-Aldrich, St. Louis, MO, cat. D2650) at 800-fold the tested concentration and stored at -70 degrees C prior to their use. All drugs and investigational agents were tested over a range starting from a high concentration at or near the clinical Cmax and decreasing in half-log increments. If the clinical Cmax for an agent had not been determined, the highest concentration tested was 10 microM.
NCI60 Cell Culture. NCI60 cell lines were obtained from the NCI Developmental Therapeutics Program Tumor Repository. For each lot of cells, the Repository performed Applied Biosystems AmpFLSTR Identifiler testing with PCR amplification to confirm consistency with the published Identifier STR profile for each cell line. Cells were kept in continuous culture for no more than 20 passages. The optimal seeding densities for each of the cell lines at each time point assessed were determined prior to performing the concentration response studies. Briefly, the NCI60 human tumor lines were grown as monolayers in RPMI 1640 medium supplemented with 10% FBS and 2 mmol/L L-glutamine.
An additional 2 lines were from the NCI60 cell line panel including melanomas, MALME-3M and SK-MEL-2. Pooled donor human umbilical vein endothelial cells (HUVEC, Lonza, cat. CC-2519) and human mesenchymal stem cells (hMSC, Lonza, cat. PT-2501) were purchased from Lonza (Walkersville, MD).
PDMR cell lines were grown in complete medium (DC medium): Dulbecco's modified Eagle's medium (DMEM)/F12 supplemented with 5% fetal bovine serum (FBS), 2 mM L-glutamine, 100 U/mL penicillin and 100 µg/ml streptomycin, 0.4 µg/ml hydrocortisone, 10 ng/ml epidermal growth factor (EGF) recombinant human protein, 24 µg/mL adenine, and 0.1 mg/mL primocin. During culture from frozen stock vials, PDMR cells were cultured in the same medium containing 10 µM Y-27632 (see Table 3). The PDCs were cultured in complete DMEM/F12 media without 10 microM Y-27632 dihydrochloride for at least two passages prior to the screen. The pooled donor HUVEC and hMSC were cultured in endothelial cell growth medium 2 (PromoCell, Heidelberg, Germany, cat. C-22011) and mesenchymal stem cell growth medium 2 (PromoCell, cat. C-28009), respectively. For all experiments, HUVEC and hMSC were used at passages </=5.
For the pre-screen, cell seeding densities were determined from a titration spanning the range from 5,000 to 313 cells per well. The mct-spheroids including 60% malignant cells, 25% HUVEC and 15% MSC dispensed as a mixture into U-bottom Ultra-Low Attachment 384-well plates (Corning, NY)
High-throughput Drug Combination Screening.
Prior to their inoculation into 384-well plates, malignant cells, HUVEC, and hMSC were removed from T flasks using TrypLE express (Thermo Fisher Scientific, cat. 12605036) and harvested by centrifugation for 5 min at 233 x g. […]
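Further: spheroids exposed to drugs for 7 days before readout.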

CC(C)n1nc(-c2ccc3oc(N)nc3c2)c2c(N)ncnc21 + CC(C)NCC(C(=O)N1CCN(c2ncnc3c2C(C)CC3O)CC1)c1ccc(Cl)cc1
inactive: viability, T/C (second compound 0.3 µM, first compound 0.000316 µM) 93.5% | viability, T/C (second compound 0.3 µM, first compound 0.001 µM) 99.9% | viability, T/C (second compound 0.3 µM, first compound 0.00316 µM) 107% | viability, T/C (second compound 0.3 µM, first compound 0.01 µM) 130% | viability, T/C (second compound 0.3 µM, first compound 0.0316 µM) 112% | viability, T/C (second compound 0.3 µM, first compound 0.1 µM) 41.2% | viability, T/C (second compound 0.949 µM, first compound 0.000316 µM) 112% | viability, T/C (second compound 0.949 µM, first compound 0.001 µM) 119% | viability, T/C (second compound 0.949 µM, first compound 0.00316 µM) 109% | viability, T/C (second compound 0.949 µM, first compound 0.01 µM) 66.6% | viability, T/C (second compound 0.949 µM, first compound 0.0316 µM) 36.7% | viability, T/C (second compound 0.949 µM, first compound 0.1 µM) 22.3% | viability, T/C (second compound 3 µM, first compound 0.000316 µM) 77.2% | viability, T/C (second compound 3 µM, first compound 0.001 µM) 74.2% | viability, T/C (second compound 3 µM, first compound 0.00316 µM) 43.5% | viability, T/C (second compound 3 µM, first compound 0.01 µM) 28.2% | viability, T/C (second compound 3 µM, first compound 0.0316 µM) 17.5% | viability, T/C (second compound 3 µM, first compound 0.1 µM) 13.7% | viability, T/C (second compound 9.49 µM, first compound 0.000316 µM) 28.6% | viability, T/C (second compound 9.49 µM, first compound 0.001 µM) 25.8% | viability, T/C (second compound 9.49 µM, first compound 0.00316 µM) 19% | viability, T/C (second compound 9.49 µM, first compound 0.01 µM) 13.1% | viability, T/C (second compound 9.49 µM, first compound 0.0316 µM) 11% | viability, T/C (second compound 30 µM, first compound 0.000316 µM) 12.6% | viability, T/C (second compound 30 µM, first compound 0.001 µM) 11.5% | viability, T/C (second compound 30 µM, first compound 0.00316 µM) 11.4%
2.73 nM: IC50 (second compound 3 µM)
18.3 nM: IC50 (second compound 0.949 µM)
< 0.316 nM: IC50 (second compound 9.49 µM) | IC50 (second compound 30 µM)
85.8 nM: IC50 (second compound 0.3 µM)
active: viability, T/C (second compound 9.49 µM, first compound 0.1 µM) 10.2% | viability, T/C (second compound 30 µM, first compound 0.01 µM) 7.84% | viability, T/C (second compound 30 µM, first compound 0.0316 µM) 7.49% | viability, T/C (second compound 30 µM, first compound 0.1 µM) 7.08%

CCCS(=O)(=O)Nc1ccc(F)c(C(=O)c2c[nH]c3ncc(-c4ccc(Cl)cc4)cc23)c1F + CC(C)NCC(C(=O)N1CCN(c2ncnc3c2C(C)CC3O)CC1)c1ccc(Cl)cc1
2760 nM: IC50 (second compound 3 µM)
6750 nM: IC50 (second compound 0.949 µM)
< 316 nM: IC50 (second compound 9.49 µM) | IC50 (second compound 30 µM)
7500 nM: IC50 (second compound 0.3 µM)
active: viability, T/C (second compound 3 µM, first compound 10 µM) 7.53% | viability, T/C (second compound 3 µM, first compound 31.6 µM) 0.1% | viability, T/C (second compound 3 µM, first compound 100 µM) 3.35% | viability, T/C (second compound 9.49 µM, first compound 10 µM) 3.54% | viability, T/C (second compound 9.49 µM, first compound 31.6 µM) 0.12% | viability, T/C (second compound 9.49 µM, first compound 100 µM) 1.39% | viability, T/C (second compound 30 µM, first compound 3.16 µM) 9.06% | viability, T/C (second compound 30 µM, first compound 10 µM) 0.4% | viability, T/C (second compound 30 µM, first compound 31.6 µM) 0.13% | viability, T/C (second compound 30 µM, first compound 100 µM) 0.3%
inactive: viability, T/C (second compound 0.3 µM, first compound 0.316 µM) 90.8% | viability, T/C (second compound 0.3 µM, first compound 1 µM) 98.1% | viability, T/C (second compound 0.3 µM, first compound 3.16 µM) 103% | viability, T/C (second compound 0.3 µM, first compound 10 µM) 23.8% | viability, T/C (second compound 0.3 µM, first compound 31.6 µM) 3.87% | viability, T/C (second compound 0.3 µM, first compound 100 µM) 75% | viability, T/C (second compound 0.949 µM, first compound 0.316 µM) 107% | viability, T/C (second compound 0.949 µM, first compound 1 µM) 114% | viability, T/C (second compound 0.949 µM, first compound 3.16 µM) 104% | viability, T/C (second compound 0.949 µM, first compound 10 µM) 16.6% | viability, T/C (second compound 0.949 µM, first compound 31.6 µM) 1.77% | viability, T/C (second compound 0.949 µM, first compound 100 µM) 46.8% | viability, T/C (second compound 3 µM, first compound 0.316 µM) 90.5% | viability, T/C (second compound 3 µM, first compound 1 µM) 76.8% | viability, T/C (second compound 3 µM, first compound 3.16 µM) 48% | viability, T/C (second compound 9.49 µM, first compound 0.316 µM) 29.1% | viability, T/C (second compound 9.49 µM, first compound 1 µM) 28.8% | viability, T/C (second compound 9.49 µM, first compound 3.16 µM) 23.2% | viability, T/C (second compound 30 µM, first compound 0.316 µM) 14.1% | viability, T/C (second compound 30 µM, first compound 1 µM) 15.2%

From PubChem BioAssay AID2060352 (Molecular Pharmacology Branch, DTP, NCI, 2025)
